# Measured values: patent USRE38329E1, “Chelated complexes of paramagnetic metals with low toxicity” (Bracco Imaging S.p.A., priority 1997, dated 2003)
# Tested on: mouse
# Experiment: DL50 after intracerebroventricular administration to the mouse (neurotoxicity / molecular toxicity)
# Format: in vivo
# Excerpt: DL50 values after intracerebral administration (intracisternal, intracerebroventricular), for example in the mouse and in the rat, can therefore be taken as a highly sensitive index of the molecular toxicity of the contrast agent (Toxicology Letters, cited ref.). In particular, the intracerebroventricular administration seems to be the most sensitive to discriminate the neurotoxicity of the compounds (Proceedings of the 10th National Congress of the Italian Toxicology Society, Pavia, September 21-24th, 100, 1994).
# The present invention relates to chelated complexes of paramagnetic metals characterized by an extremely favourable neurotoxicity profile. […] The compound described in example 1 (gadolinium complex of 10-[2-[[2-(2-hydroxyethoxy)ethyl]amino]-2-oxoethyl]-α,α′,α″-tris(hydroxymethyl)-1,4,7,10-tetraazacyclododecane-1,4,7-triacetic) acid has, for example, a DL50 of 0.23 mmol/kg after intracerebroventricular administration to the mouse. The compounds described in example 2 (gadolinium complex of α,α′,α″-tris (hydroxymethyl)-10-(2-hydroxypropyl)-1,4,7,10-tetraazacyclododecane-1,4,7-triacetic acid) and in Example 4 (Na^+Gd[THM-DOTA]^−) have a very good tolerability as well, with a DL50, after intracerebroventricular administration to the mouse, of 0.170 and 0.150 mmol/kg, respectively; the corresponding value for Gd-DOTA being 0.064 mmol/kg.
row,SMILES,DL50 after intracerebroventricular administration to the mouse [mmol/kg]
1,"O=C([O-])CN1CCN(CC(=O)[O-])CCN(CC(=O)[O-])CCN(CC(=O)[O-])CC1.[Gd+3] [Gd-DOTA, reference compound]",0.064
2,"O=C([O-])CN1C[C@@H](CO)N(CC(=O)[O-])C[C@@H](CO)N(CC(=O)[O-])C[C@@H](CO)N(CC(=O)[O-])C[C@H]1CO.[Gd+3].[Na+] (relative stereo) [Example 4, Gadolinium complex of [2S-(2R*,5R*,8R*,11R*)]-2,5,8,11-tetra(hydroxymethyl)-1,4,7,10-tetraazacyclododecane-1,4,7,10-tetraacetic acid sodium salt (1:1)]",0.150
3,"O=C(CN1CCN(C(CO)C(=O)[O-])CCN(C(CO)C(=O)[O-])CCN(C(CO)C(=O)[O-])CC1)NCCOCCO.[Gd+3] (stereo not drawn) [Example 1, Gadolinium complex of 10-[2-[[2-(2-hydroxyethoxy)ethyl]amino]-2-oxoethyl]-α,α′,α″-tris(hydroxymethyl)-1,4,7,10-tetraazacyclododecane-1,4,7-triacetic acid]",0.23
